Read-outs that look alike come from different tables or passages of the source.
What was measured:
[1] = tested on: tetrabenzazine-induced depression; assay: inhibition of tetrabenzazine-induced depression (ptosis), antidepressant activity; assay type: in vivo, mice; details: Mus musculus, ip, read-out: Antidepressant ED50 (50% inhibition of ptosis of tetrabenzazine-induced depression)
Source text: (§1) The results are expressed in ED50 's (intraperitoneal dose effecting a 50% inhibition of ptosis of tetrabenzazine-induced depression in mice). The doses are in mg/kg of body weight. […] The toxicity data is expressed in ALD50 's (the acute lethal intraperitoneal dose, mg/kg of body weight, in 50% of the mice tested).

[2] = acute lethal toxicity (ALD50); details: mouse, in vivo, ip; intraperitoneal, groups of four mice; read-out: Toxicity ALD50 (acute lethal dose in 50% of the mice tested)
Source text: as §1

[3] = tested on: 2-phenyl-1,4-quinone-induced writhing; assay: 2-phenyl-1,4-quinone-induced writhing assay (analgesia); assay type: in vivo; details: 50 mg/kg of body weight oral dose, mice
Source text: Exptl. Biol. Med., Vol. 45, 729 (1957)].

[4] = tested on: supra maximal electro shock; assay: protection from supra maximal electro shock, anticonvulsant activity (method of Woodbury and Davenport); assay type: in vivo; details: intraperitoneal dose of about 5 mg/kg of body weight
Experimental: The compounds of the invention are useful as anticonvulsant agents for mammals, as determined by the method of Woodbury, L. A. and Davenport, V. D., in Arch. Int. Pharmacodynam, Vol. 92, (1952) at pages 97-107. For example, 1'-amino-1,3-dihydro-3-phenylspiro[isobenzofuran-1,4'-piperidine]at an intraperitoneal dose of about 5 mg/kg of body weight produced a 50% protection from the effect of a supra maximal electro shock. This datum illustrates the utility of the compounds of the invention for the treatment of convulsion in mammals when administered in amounts ranging from 0.1 to 50 mg/kg of body weight per day.

| SMILES | ED50 ([1]; intraperitoneal, mice) [mg/kg] | LD50 [2] [mg/kg] | ED50 [1] [mg/kg] | inhibition of writhing [3] [%] | protection from the effect of a supra maximal electro shock [4] [%] |
| --- | --- | --- | --- | --- | --- |
| COc1ccc2c(c1)C1(CCN(O)CC1)OC2c1ccccc1 (stereo not drawn) [Example 10, 1'-hydroxy-1,3-dihydro-6-methoxy-3-phenylspiro[isobenzofuran-1,4'-piperidine]] | 3.2 | > 562 |  |  |  |
| C[N+]1([O-])CCC2(CC1)OC(c1ccccc1)c1ccccc12 (stereo not drawn) [Example 12, 1,3-dihydro-1'-methyl-3-phenylspiro[isobenzofuran-1,4'-piperidine]-1'-oxide] |  | 280 | 6.5 |  |  |
| [O-][N+]1(Cc2ccccc2)CCC2(CC1)OC(c1ccccc1)c1ccccc12 (stereo not drawn) [Example 13, 1'-benzyl-1,3-dihydro-3-phenylspiro[isobenzofuran-1,4'-piperidine]-1'-oxide] |  |  |  | 48 |  |
| NN1CCC2(CC1)OC(c1ccccc1)c1ccccc12 (stereo not drawn) [Example 2, 1'-amino-1,3-dihydro-3-phenylspiro[isobenzofuran-1,4'-piperidine]] | 10.3 | 100 |  | 53 | 50 |
| O=C(ON1CCC2(CC1)OC(c1ccccc1)c1ccccc12)c1ccccc1 (stereo not drawn) [Example 4, 1'-benzoyloxy-1,3-dihydro-3-phenylspiro[isobenzofuran-1,4'-piperidine]] |  |  |  | 54 |  |
| COc1ccc(C2OC3(CCN(O)CC3)c3ccccc32)cc1 (stereo not drawn) [Example 9, 1'-hydroxy-1,3-dihydro-3-(4-methoxyphenyl)spiro[isobenzofuran-1,4'-piperidine]] | 2.6 | > 562 |  |  |  |
| ON1CCC2(CC1)OC(c1ccccc1)c1ccccc12 (stereo not drawn) [Example 8, 1'-hydroxy-1,3-dihydro-3-phenylspiro[isobenzofuran-1,4'-piperidine]] | 1.4 | > 562 |  | 53 |  |
| ON1CCC2(CC1)OC(c1ccc(F)cc1)c1ccccc12 (stereo not drawn) [Example 11, 1'-hydroxy-1,3-dihydro-3-(4-fluorophenyl)spiro[isobenzofuran-1,4'-piperidine]] | 4 | 316 |  |  |  |
| CC(C)NN1CCC2(CC1)OC(c1ccccc1)c1ccccc12 (stereo not drawn) [Example 3, 1'-(isopropylamino)1,3'-dihydro-3-phenylspiro[isobenzofuran-1,4'-piperidine]] |  |  |  | 27 |  |

Reference: patent US4024263A, “1,3-Dihydrospiro[isobenzofuran-1,4'-piperidine]s” (American Hoechst Corporation, priority 1975, dated 1977)
